Measured values reported in patent US11185616B2, “Implantable medical products, a process for the preparation thereof, and use thereof” (priority 2016, dated 2021).

Columns and labels:
[1] = system: thromboxane A2 in platelets; conditions: Köfeler et al. 2000; cited from earlier work
S. aureus ATCC = test: rifampicin resistance development, passaging experiment; type: cell-based; conditions: parallel culture with rifampicin-MHC doping
Protocol: (§1) 10 ml tubes with Müller-Hinton broth (MHB) was brought to a concentration of about 10^6 CPU with 0.01 ml of an overnight culture with S. epidermidis RP62A and S. aureus ATCC, and provided with the respective MHC of rifampicin and miconazole. An aliquot was taken from the overnight cultures, brought into new MHB tubes (about 10^6 CPU), and again incubated over night. This was repeated up to 50 times, and the resistant isolates were frozen.

S. epidermidis RP62A = test: as above; type: cell-based; conditions: parallel culture with rifampicin-MHC doping
Protocol: as §1

Structure (SMILES)	inhibition of synthesis of thromboxane A2 in platelets [1]	resistance frequencies (S. aureus ATCC)	resistance frequencies (S. epidermidis RP62A)
Clc1ccc(COC(Cn2ccnc2)c2ccc(Cl)cc2Cl)c(Cl)c1 (stereo not shown) [Miconazole, miconazole]	selectively inhibit	–	–
Clc1ccccc1C(c1ccccc1)(c1ccccc1)n1ccnc1 [clotrimazole]	selectively inhibit	–	–
CO[C@H]1/C=C/O[C@@]2(C)Oc3c(C)c(O)c4c(O)c(c(/C=N/N5CCN(C)CC5)c(O)c4c3C2=O)NC(=O)/C(C)=C\C=C\[C@H](C)[C@H](O)[C@@H](C)[C@@H](O)[C@@H](C)[C@H](OC(C)=O)[C@@H]1C [rifampicin]	–	10^−6	10^−6
